How the values were obtained:
[1] = DRUGMATRIX: Purinergic P2X radioligand binding (ligand: [3H] alpha, beta-Methylene-ATP); assay type: cell membranes, Oryctolagus cuniculus, New Zealand albino, Urinary bladder, Membrane; details: Not Active = under 50% inhibition at 10 µM
[2] = target: Vascular endothelial growth factor receptor 1 (Homo sapiens, UniProt P17948); assay type: cell-based; details: huvec; also: in other assays of this panel Not Active means under 50% inhibition at 10 µM
[3] = target: Adenosine receptor A2a (Homo sapiens, UniProt P29274); assay: DRUGMATRIX: Adenosine A2A radioligand binding (ligand: […]); assay type: cell membranes, HEK293, Membrane; details: hek293; Not Active = under 50% inhibition at 10 µM
[4] = DRUGMATRIX: Sigma2 radioligand binding (ligand: [3H] Ifenprodil); assay type: cell membranes, Rattus norvegicus, Wistar, Brain, Membrane; details: Not Active = under 50% inhibition at 10 µM
[5] = target: T1, Nitric oxide synthase, inducible (Mus musculus, UniProt P29477); set-up: species or system Escherichia coli;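 also: inhibition of iNOS enzyme activity measured with L-arginine as substrate; in other assays of this panel Not Active means under 50% inhibition at 10 µM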
T1 sequence (P29477 whole entry): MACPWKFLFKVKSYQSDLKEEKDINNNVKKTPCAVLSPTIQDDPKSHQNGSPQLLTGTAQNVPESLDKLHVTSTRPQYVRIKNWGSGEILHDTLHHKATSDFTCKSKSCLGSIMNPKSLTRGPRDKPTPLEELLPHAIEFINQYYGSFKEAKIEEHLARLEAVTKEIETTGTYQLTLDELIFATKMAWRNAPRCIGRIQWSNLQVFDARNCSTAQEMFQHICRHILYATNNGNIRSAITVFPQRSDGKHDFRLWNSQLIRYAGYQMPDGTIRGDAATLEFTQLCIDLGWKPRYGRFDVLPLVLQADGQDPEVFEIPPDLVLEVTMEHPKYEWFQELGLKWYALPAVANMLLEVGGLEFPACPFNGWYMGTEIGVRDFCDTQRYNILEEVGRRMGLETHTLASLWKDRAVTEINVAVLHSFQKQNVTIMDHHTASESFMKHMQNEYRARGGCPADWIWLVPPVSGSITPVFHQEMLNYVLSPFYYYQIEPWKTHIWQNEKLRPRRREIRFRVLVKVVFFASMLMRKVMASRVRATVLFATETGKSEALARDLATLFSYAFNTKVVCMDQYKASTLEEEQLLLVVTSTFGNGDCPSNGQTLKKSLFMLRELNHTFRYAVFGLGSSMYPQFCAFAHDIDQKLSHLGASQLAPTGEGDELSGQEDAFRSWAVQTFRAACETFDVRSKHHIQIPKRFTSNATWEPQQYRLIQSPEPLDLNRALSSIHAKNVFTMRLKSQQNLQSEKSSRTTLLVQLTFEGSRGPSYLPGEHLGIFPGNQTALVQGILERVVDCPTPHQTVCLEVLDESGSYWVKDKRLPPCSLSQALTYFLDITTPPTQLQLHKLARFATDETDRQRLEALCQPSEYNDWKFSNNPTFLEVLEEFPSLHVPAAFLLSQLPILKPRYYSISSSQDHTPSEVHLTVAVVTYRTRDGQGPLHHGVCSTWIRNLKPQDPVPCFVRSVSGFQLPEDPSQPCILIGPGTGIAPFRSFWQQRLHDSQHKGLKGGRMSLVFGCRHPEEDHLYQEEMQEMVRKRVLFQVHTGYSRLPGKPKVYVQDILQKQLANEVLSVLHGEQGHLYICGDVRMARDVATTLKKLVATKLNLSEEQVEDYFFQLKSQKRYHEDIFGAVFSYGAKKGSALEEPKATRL

[6] = DRUGMATRIX: Interleukin IL-1 radioligand binding (ligand: [125I] interleukin 1beta); assay type: cell membranes, Membrane; details: nih3t3; Not Active = under 50% inhibition at 10 µM
[7] = DRUGMATRIX: Phorbol Ester radioligand binding (ligand: [3H] PDBu); assay type: cell membranes, Mus musculus, ICR, Brain, Membrane; details: Not Active = under 50% inhibition at 10 µM
[8] = target: Cytochrome P450 2C19 (Homo sapiens, UniProt P33261); details: bti-tn-5b1-4; also: in other assays of this panel Not Active means under 50% inhibition at 10 µM
[9] = target: cGMP-specific 3',5'-cyclic phosphodiesterase (Homo sapiens, UniProt O76074); assay: DRUGMATRIX: Phosphodiesterase PDE5 enzyme inhibition (substrate: [3H]cGMP + cGMP); assay type: tissue-based; details: platelet; Not Active = under 50% inhibition at 10 µM
[10] = target: 5-hydroxytryptamine receptor 4 (Cavia porcellus, UniProt O70528); assay type: cell membranes, Dunkin-Hartley, Striatum, Membrane; also: in other assays of this panel Not Active means under 50% inhibition at 10 µM
[11] = target: T2, Polyunsaturated fatty acid lipoxygenase ALOX15 (Oryctolagus cuniculus, UniProt P12530); assay: biochemical; assay type: tissue-based, Reticulocytes; details: reticulocytes
T2 sequence (P12530 whole entry): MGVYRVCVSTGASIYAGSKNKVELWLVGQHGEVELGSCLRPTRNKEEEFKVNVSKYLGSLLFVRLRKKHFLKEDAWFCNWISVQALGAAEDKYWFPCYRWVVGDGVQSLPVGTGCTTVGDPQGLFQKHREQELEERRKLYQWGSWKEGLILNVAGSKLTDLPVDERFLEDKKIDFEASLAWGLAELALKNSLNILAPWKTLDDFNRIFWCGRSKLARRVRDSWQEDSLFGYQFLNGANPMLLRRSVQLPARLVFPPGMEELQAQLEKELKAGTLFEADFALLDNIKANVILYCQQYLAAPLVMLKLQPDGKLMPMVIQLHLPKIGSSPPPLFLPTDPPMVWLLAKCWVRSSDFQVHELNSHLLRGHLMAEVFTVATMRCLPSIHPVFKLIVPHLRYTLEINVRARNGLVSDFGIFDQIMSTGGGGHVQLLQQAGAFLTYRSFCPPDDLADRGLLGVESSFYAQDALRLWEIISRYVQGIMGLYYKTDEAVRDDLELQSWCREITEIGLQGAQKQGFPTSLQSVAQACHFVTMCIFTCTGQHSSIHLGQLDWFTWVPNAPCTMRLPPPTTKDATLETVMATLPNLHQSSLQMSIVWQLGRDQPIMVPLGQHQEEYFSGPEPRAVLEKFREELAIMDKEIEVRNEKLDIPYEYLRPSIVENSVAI

Adenosine receptor A2a, sequence (P29274 whole entry): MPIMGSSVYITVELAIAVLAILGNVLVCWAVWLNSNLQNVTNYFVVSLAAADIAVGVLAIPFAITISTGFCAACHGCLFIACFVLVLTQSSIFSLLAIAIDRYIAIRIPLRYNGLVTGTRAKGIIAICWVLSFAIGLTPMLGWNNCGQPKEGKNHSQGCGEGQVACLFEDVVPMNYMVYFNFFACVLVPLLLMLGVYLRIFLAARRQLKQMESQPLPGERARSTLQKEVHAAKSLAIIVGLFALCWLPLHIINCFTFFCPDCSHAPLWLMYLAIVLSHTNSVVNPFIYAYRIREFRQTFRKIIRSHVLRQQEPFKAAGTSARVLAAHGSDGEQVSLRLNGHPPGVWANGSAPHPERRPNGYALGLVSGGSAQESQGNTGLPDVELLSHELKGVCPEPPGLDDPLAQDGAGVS
Vascular endothelial growth factor receptor 1, sequence (P17948 whole entry): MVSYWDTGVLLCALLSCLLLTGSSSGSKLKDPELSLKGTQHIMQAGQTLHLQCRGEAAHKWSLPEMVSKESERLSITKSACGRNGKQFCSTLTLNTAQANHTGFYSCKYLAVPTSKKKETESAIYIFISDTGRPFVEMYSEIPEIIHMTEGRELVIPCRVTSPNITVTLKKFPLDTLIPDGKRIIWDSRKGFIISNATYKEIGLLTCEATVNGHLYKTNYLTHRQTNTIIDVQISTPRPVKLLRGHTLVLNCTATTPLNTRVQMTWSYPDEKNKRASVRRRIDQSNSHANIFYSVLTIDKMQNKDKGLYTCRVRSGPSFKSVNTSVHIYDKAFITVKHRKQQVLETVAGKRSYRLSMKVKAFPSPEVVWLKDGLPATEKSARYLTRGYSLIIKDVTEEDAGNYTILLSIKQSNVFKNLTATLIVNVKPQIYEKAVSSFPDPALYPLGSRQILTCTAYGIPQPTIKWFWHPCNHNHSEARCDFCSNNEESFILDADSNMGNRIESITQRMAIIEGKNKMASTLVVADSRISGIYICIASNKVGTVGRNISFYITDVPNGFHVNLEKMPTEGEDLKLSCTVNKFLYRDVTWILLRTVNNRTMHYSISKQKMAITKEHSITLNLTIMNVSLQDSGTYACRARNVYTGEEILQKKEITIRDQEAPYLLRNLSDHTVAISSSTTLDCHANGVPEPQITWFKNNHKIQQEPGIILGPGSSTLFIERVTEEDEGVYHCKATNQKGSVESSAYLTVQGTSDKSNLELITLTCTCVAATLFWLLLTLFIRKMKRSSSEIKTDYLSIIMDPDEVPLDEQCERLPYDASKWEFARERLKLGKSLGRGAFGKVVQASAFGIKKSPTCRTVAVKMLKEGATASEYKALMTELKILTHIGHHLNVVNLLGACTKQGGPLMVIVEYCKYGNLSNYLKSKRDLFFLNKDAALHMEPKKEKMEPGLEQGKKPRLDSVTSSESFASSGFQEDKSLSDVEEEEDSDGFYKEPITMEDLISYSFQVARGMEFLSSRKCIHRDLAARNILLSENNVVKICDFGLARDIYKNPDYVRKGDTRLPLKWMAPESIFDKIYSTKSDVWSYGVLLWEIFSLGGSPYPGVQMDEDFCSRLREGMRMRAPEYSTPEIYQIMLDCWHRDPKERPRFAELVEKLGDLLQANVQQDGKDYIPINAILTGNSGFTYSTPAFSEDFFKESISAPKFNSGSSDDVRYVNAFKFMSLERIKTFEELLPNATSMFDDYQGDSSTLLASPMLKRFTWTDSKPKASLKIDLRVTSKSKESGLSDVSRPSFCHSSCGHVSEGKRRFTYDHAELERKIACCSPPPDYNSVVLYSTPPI
5-hydroxytryptamine receptor 4, sequence (O70528 whole entry): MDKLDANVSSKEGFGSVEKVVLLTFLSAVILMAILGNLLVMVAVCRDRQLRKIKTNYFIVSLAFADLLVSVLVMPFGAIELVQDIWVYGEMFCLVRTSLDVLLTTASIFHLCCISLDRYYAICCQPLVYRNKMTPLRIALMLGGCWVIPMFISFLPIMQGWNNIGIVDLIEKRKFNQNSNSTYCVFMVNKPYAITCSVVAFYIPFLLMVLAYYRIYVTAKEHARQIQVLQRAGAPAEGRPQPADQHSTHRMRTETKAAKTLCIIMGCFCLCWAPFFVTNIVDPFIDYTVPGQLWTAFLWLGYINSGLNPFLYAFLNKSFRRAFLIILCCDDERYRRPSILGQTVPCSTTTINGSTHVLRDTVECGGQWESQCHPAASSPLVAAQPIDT
Cytochrome P450 2C19, sequence (P33261 whole entry): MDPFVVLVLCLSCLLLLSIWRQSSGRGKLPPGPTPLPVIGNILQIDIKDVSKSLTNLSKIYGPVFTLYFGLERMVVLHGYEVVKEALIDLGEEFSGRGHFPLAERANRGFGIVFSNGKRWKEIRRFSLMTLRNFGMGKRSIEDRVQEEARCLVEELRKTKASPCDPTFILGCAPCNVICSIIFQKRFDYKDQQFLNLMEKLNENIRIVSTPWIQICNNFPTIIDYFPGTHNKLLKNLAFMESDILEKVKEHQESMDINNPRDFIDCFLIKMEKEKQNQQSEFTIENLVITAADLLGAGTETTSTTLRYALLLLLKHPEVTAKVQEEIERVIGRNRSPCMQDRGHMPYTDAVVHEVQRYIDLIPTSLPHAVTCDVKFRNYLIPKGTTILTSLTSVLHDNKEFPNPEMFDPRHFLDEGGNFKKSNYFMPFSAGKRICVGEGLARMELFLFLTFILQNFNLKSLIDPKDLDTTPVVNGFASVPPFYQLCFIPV

CNC(=C[N+](=O)[O-])NCCSCc1ccc(CN(C)C)o1 [RANITIDINE]
Not Active: IC50 [1] | Ki [1] | IC50 [2] | IC50 [3] | IC50 [4] | Ki [4] | IC50 [5] | IC50 [6] | Ki [6] | IC50 [7] | Ki [7] | IC50 [8] | Ki [8] | IC50 [9] | IC50 [10] | IC50 [11]

CC1=C(CC(=O)O)c2cc(F)ccc2/C1=C\c1ccc([S+](C)[O-])cc1 (centres undefined)
Not Active: IC50 [1] | Ki [1] | IC50 [2] | IC50 [3] | IC50 [4] | Ki [4] | IC50 [5] | IC50 [6] | Ki [6] | IC50 [7] | Ki [7] | IC50 [8] | Ki [8] | IC50 [9] | IC50 [10] | IC50 [11]

CC(=O)CC(c1ccccc1)c1c(O)c2ccccc2oc1=O (centres undefined) [WARFARIN]
Not Active: IC50 [1] | Ki [1] | IC50 [2] | IC50 [3] | IC50 [4] | Ki [4] | IC50 [5] | IC50 [6] | Ki [6] | IC50 [7] | Ki [7] | IC50 [8] | Ki [8] | IC50 [9] | IC50 [10] | IC50 [11]

CC(C)(C)c1ccc(C(O)CCCN2CCC(C(O)(c3ccccc3)c3ccccc3)CC2)cc1 (centres undefined) [TERFENADINE]
Not Active: IC50 [1] | Ki [1] | IC50 [2] | IC50 [3] | IC50 [4] | Ki [4] | IC50 [5] | IC50 [6] | Ki [6] | IC50 [7] | Ki [7] | IC50 [8] | Ki [8] | IC50 [9] | IC50 [10] | IC50 [11]

From ChEMBL document CHEMBL1909046, “DrugMatrix in vitro pharmacology data”
